Data reported in PubChem BioAssay AID248 (DTP/NCI, 2004).
“And” between values parts separate entries of the source, which are not always exact repeats. Identical values can stand only once. Inconclusive results and toxic doses are left out.

System: L1210 leukemia ip in BDF1 mice, survival T/C
Experiment: NCI In Vivo Anticancer Drug Screen. Data for tumor model L1210 Leukemia (intraperitoneal) in B6D2F1 (BDF1) mice
Conditions: endpoint: mean survival time, higher = longer survival
Summary of the method: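 Value reflects the ratio of survival in compound-treated mice to survival in vehicle-treated controls, with both groups carrying the same transplanted tumor.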

[1] = dose: 50.0 mg/kg/injection, schedule: Q01DX009 (ip), vehicle: Klucel (hydroxypropylcellulose) (HPC)
[2] = dose: 100.0 mg/kg/injection, schedule: Q01DX009 (ip), vehicle: Klucel (hydroxypropylcellulose) (HPC)
[3] = dose: 200.0 mg/kg/injection, schedule: Q01DX009 (ip), vehicle: Klucel (hydroxypropylcellulose) (HPC)
[4] = dose: 400.0 mg/kg/injection, schedule: Q01DX009 (ip), vehicle: Klucel (hydroxypropylcellulose) (HPC)
[5] = dose: 100.0 mg/kg/injection, schedule: Q04DX003 (ip), vehicle: Klucel (hydroxypropylcellulose) (HPC)
[6] = dose: 200.0 mg/kg/injection, schedule: Q04DX003 (ip), vehicle: Klucel (hydroxypropylcellulose) (HPC)
[7] = dose: 400.0 mg/kg/injection, schedule: Q01DX001 (ip), vehicle: carboxymethylcellulose (CMC)

**Q.** How did the T/C (dose: 50.0 mg/kg/injection, schedule: Q01DX009 (ip), vehicle: saline) turn out when `CN(C)CCOC(=O)/C=C/c1ccccc1` was run?
**A.** 89 % of control

**Q.** What about the T/C (dose: 100.0 mg/kg/injection, schedule: Q01DX009 (ip), vehicle: saline) of the same compound?
**A.** 96 % of control

**Q.** What about the T/C (dose: 200.0 mg/kg/injection, schedule: Q01DX009 (ip), vehicle: saline) of the same compound?
**A.** 88 % of control

**Q.** `COC(=O)c1nnn(S(=O)(=O)c2ccc(C)cc2)c1C(=O)OC` was tested. Which T/C (dose: 100.0 mg/kg/injection, schedule: Q04DX002 (ip), vehicle: Klucel (hydroxypropylcellulose) (HPC)) did it give?
**A.** 91 % of control

**Q.** And the T/C (dose: 200.0 mg/kg/injection, schedule: Q04DX002 (ip), vehicle: Klucel (hydroxypropylcellulose) (HPC))?
**A.** 95 % of control

**Q.** What about the T/C (dose: 400.0 mg/kg/injection, schedule: Q04DX002 (ip), vehicle: Klucel (hydroxypropylcellulose) (HPC)) of the same compound?
**A.** 91 % of control

**Q.** How did the T/C (dose: 25.0 mg/kg/injection, schedule: Q01DX009 (ip), vehicle: Klucel (hydroxypropylcellulose) (HPC)) turn out when `NCC(=O)NC1(C(=O)O)C2CC3CC(C2)CC1C3` (configuration not stated) was run?
**A.** 96 % of control

**Q.** And the T/C [1]?
**A.** 94 % of control

**Q.** And the T/C [2]?
**A.** 94 % of control and 96 % of control

**Q.** What about the T/C [3] of the same compound?
**A.** 103 % of control

**Q.** What about the T/C [4] of the same compound?
**A.** 103 % of control

**Q.** What does the source list for `O=[N+]([O-])c1cccnc1Cl`?
**A.** T/C [1]: 107 % of control; T/C [2]: 95 % of control; T/C [5]: 92 % of control; T/C [3]: 95 % of control; T/C [6]: 91 % of control

**Q.** For `BrC(c1ccccc1)C(Br)c1ccccc1` (configuration not stated), which T/C [2] is on record?
**A.** 86 % of control

**Q.** And the T/C [5]?
**A.** 92 % of control

**Q.** What about the T/C [3] of the same compound?
**A.** 96 % of control

**Q.** And the T/C [6]?
**A.** 94 % of control

**Q.** What about the T/C [4] of the same compound?
**A.** 91 % of control

**Q.** What about the T/C (dose: 400.0 mg/kg/injection, schedule: Q04DX003 (ip), vehicle: Klucel (hydroxypropylcellulose) (HPC)) of the same compound?
**A.** 100 % of control

**Q.** For `NC(=O)SCC(=O)Nc1ccc2ncccc2c1`, which T/C (dose: 50.0 mg/kg/injection, schedule: Q01DX001 (ip), vehicle: carboxymethylcellulose (CMC)) is on record?
**A.** 97 % of control

**Q.** What about the T/C (dose: 88.0 mg/kg/injection, schedule: Q01DX001 (ip), vehicle: carboxymethylcellulose (CMC)) of the same compound?
**A.** 95 % of control and 112 % of control

**Q.** And the T/C (dose: 100.0 mg/kg/injection, schedule: Q01DX001 (ip), vehicle: carboxymethylcellulose (CMC))?
**A.** 94 % of control

**Q.** And the T/C (dose: 100.0 mg/kg/injection, schedule: Q01DX009 (ip), vehicle: saline sonified)?
**A.** 98 % of control

**Q.** What about the T/C (dose: 100.0 mg/kg/injection, schedule: Q04DX003 (ip), vehicle: saline) of the same compound?
**A.** 93 % of control

**Q.** What about the T/C (dose: 134.0 mg/kg/injection, schedule: Q01DX001 (ip), vehicle: carboxymethylcellulose (CMC)) of the same compound?
**A.** 95 % of control and 105 % of control

**Q.** What about the T/C (dose: 200.0 mg/kg/injection, schedule: Q01DX009 (ip), vehicle: saline sonified) of the same compound?
**A.** 90 % of control

**Q.** And the T/C (dose: 200.0 mg/kg/injection, schedule: Q04DX003 (ip), vehicle: saline)?
**A.** 109 % of control

**Q.** And the T/C (dose: 300.0 mg/kg/injection, schedule: Q01DX001 (ip), vehicle: carboxymethylcellulose (CMC))?
**A.** 100 % of control and 87 % of control

**Q.** And the T/C [7]?
**A.** 100 % of control

**Q.** What about the T/C (dose: 400.0 mg/kg/injection, schedule: Q01DX009 (ip), vehicle: saline sonified) of the same compound?
**A.** 101 % of control

**Q.** What about the T/C (dose: 400.0 mg/kg/injection, schedule: Q04DX003 (ip), vehicle: saline) of the same compound?
**A.** 96 % of control

**Q.** Which T/C (dose: 1.7 mg/kg/injection, schedule: Q01DX015 (ip), vehicle: saline) does the source give for `CN(CCCCN(C)CCOS(C)(=O)=O)CCOS(C)(=O)=O` here?
**A.** 177 % of control

**Q.** And the T/C (dose: 8.3 mg/kg/injection, schedule: Q01DX001 (ip), vehicle: saline)?
**A.** 155 % of control

**Q.** What about the T/C (dose: 12.5 mg/kg/injection, schedule: Q01DX001 (ip), vehicle: saline) of the same compound?
**A.** 160 % of control

**Q.** What about the T/C (dose: 18.7 mg/kg/injection, schedule: Q01DX001 (ip), vehicle: saline) of the same compound?
**A.** 155 % of control

**Q.** What about the T/C (dose: 25.0 mg/kg/injection, schedule: Q01DX001 (ip), vehicle: saline) of the same compound?
**A.** 116 % of control

**Q.** With `COc1ccc(C(=O)Nc2ccccc2)cc1N` as the compound, how does the T/C (dose: 50.0 mg/kg/injection, schedule: Q01DX009 (ip), vehicle: carboxymethylcellulose (CMC)) read?
**A.** 96 % of control

**Q.** What about the T/C (dose: 100.0 mg/kg/injection, schedule: Q01DX009 (ip), vehicle: carboxymethylcellulose (CMC)) of the same compound?
**A.** 103 % of control

**Q.** What about the T/C (dose: 200.0 mg/kg/injection, schedule: Q01DX009 (ip), vehicle: carboxymethylcellulose (CMC)) of the same compound?
**A.** 94 % of control

**Q.** And the T/C [7]?
**A.** 120 % of control

**Q.** And the T/C (dose: 400.0 mg/kg/injection, schedule: Q01DX009 (ip), vehicle: carboxymethylcellulose (CMC))?
**A.** 100 % of control

**Q.** What about the T/C (dose: 600.0 mg/kg/injection, schedule: Q01DX001 (ip), vehicle: carboxymethylcellulose (CMC)) of the same compound?
**A.** 114 % of control

**Q.** And the T/C (dose: 800.0 mg/kg/injection, schedule: Q01DX001 (ip), vehicle: carboxymethylcellulose (CMC))?
**A.** 118 % of control

**Q.** What about the T/C (dose: 1000.0 mg/kg/injection, schedule: Q01DX001 (ip), vehicle: carboxymethylcellulose (CMC)) of the same compound?
**A.** 114 % of control
